Reference: PubChem BioAssay (NCI)
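Values below derive from 48-hour exposures of cells grown in 96-well plates, with endpoints linearly interpolated between the two concentrations bracketing the appropriate inhibition level. The concentration for 50% growth inhibition is given as GI50. Definition used: TGI = concentration required for complete inhibition of growth.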

What was measured:
Experiment in all cases: DTP human tumour cell line panel, 48 h
[1] = system: KM12 colon
[2] = system: ACHN renal
[3] = system: CCRF-CEM leukemia
[4] = system: MOLT-4 leukemia
[5] = system: COLO 205 colon
[6] = system: NCI-H460 lung
[7] = system: RPMI-8226 leukemia
[8] = system: CAKI-1 renal
[9] = system: MDA-MB-231 breast
[10] = system: PC-3 prostate

`COc1ccc(/C=C2\CN(C(=O)C(Cl)Cl)C/C(=C\c3ccc(OC)cc3)C2=O)cc1` showed a GI50 [1] of 0.332 µM, a TGI [1] of 1.16 µM and a GI50 [2] of 1.67 µM. The TGI [2] was 4.7 µM, the GI50 [3] was 0.528 µM and the TGI [3] was > 100 µM. For the same molecule, the GI50 [4] was 1.78 µM and the TGI [4] was > 100 µM.

For `Cc1n[nH]c(=S)n(C)c1=S`, the TGI [5] was > 100 µM, the TGI [2] was > 100 µM and the TGI [3] was > 100 µM. For the same molecule, the TGI [6] was > 100 µM, the TGI [4] was > 100 µM and the TGI [7] was > 100 µM.

`COc1cc(-c2nccc3cc(OC)c(OC)cc23)ccc1O` was tested, and the TGI [5] was > 100 µM, the TGI [1] was > 100 µM and the TGI [8] was > 100 µM. The TGI [2] was > 100 µM, the TGI [3] was > 100 µM and the TGI [6] was > 100 µM. For the same molecule, the TGI [4] was 91.8 µM and the TGI [7] was > 100 µM.

With `N#CC12CCC1C1CCCCC12N1CCSCC1` (stereo not given) the TGI [5] was > 100 µM, the TGI [1] was > 100 µM and the TGI [8] was > 100 µM. For the same molecule, the TGI [2] was > 100 µM, the TGI [3] was > 100 µM and the TGI [6] was > 100 µM. For the same molecule, the TGI [4] was > 100 µM and the TGI [7] was > 100 µM.

With `O=C1C(=C(C(F)(F)Cl)C(F)(F)Cl)C2CCC1C2` (stereo not given) the TGI [5] was 3.25 µM, the TGI [1] was > 8.65 µM and the TGI [2] was 3.32 µM. For the same molecule, the TGI [9] was 3.07 µM, the TGI [3] was > 10 µM and the TGI [6] was > 7.96 µM. For the same molecule, the TGI [4] was > 3.53 µM, the TGI [7] was > 3.16 µM and the TGI [10] was 5.48 µM.

For `O=C1C(=O)N(c2ccc(Cl)cc2)C(=O)C(=O)C1c1nc2ccccc2o1`, the TGI [5] was > 100 µM, the TGI [1] was > 100 µM and the TGI [8] was > 100 µM. The TGI [2] was > 100 µM, the TGI [3] was > 100 µM and the TGI [6] was > 100 µM. The TGI [4] was > 100 µM and the TGI [7] was > 100 µM.

`COC(=O)c1ccccc1N(C(=O)c1ccccc1)c1ccccc1C` was tested, and the TGI [5] was 54.5 µM, the TGI [1] was > 100 µM and the TGI [8] was > 100 µM. For the same molecule, the TGI [2] was > 100 µM, the TGI [3] was 83.5 µM and the TGI [6] was > 100 µM. The TGI [4] was 54.6 µM.

`CCCCCOCC(O)CO` (stereo not given) was tested, and the TGI [5] was > 100 µM, the TGI [1] was > 100 µM and the TGI [8] was > 100 µM. For the same molecule, the TGI [2] was > 100 µM and the TGI [6] was > 100 µM.

With `COc1cc(Oc2c(C)c(Cl)c(OC)c(Cl)c2OC)c2c(c1Cl)COC2=O` the TGI [5] was > 100 µM, the TGI [1] was > 100 µM and the TGI [8] was > 100 µM. For the same molecule, the TGI [2] was 62.9 µM, the TGI [9] was > 100 µM and the TGI [3] was > 100 µM. For the same molecule, the TGI [6] was > 100 µM, the TGI [4] was 69.1 µM and the TGI [7] was 13.1 µM.

With `C=C(CO)CC(O)c1cc(OC)ccc1OC` (stereo not given) the TGI [5] was > 100 µM, the TGI [1] was > 100 µM and the TGI [8] was > 100 µM. The TGI [2] was > 100 µM, the TGI [3] was > 100 µM and the TGI [6] was > 100 µM. The TGI [4] was > 100 µM and the TGI [7] was > 100 µM.

For `O=C(Nc1cccc2c1C(=O)c1c(NC(=O)c3ccccc3)ccc(Nc3cccc4c3C(=O)c3ccccc3C4=O)c1C2=O)c1ccccc1`, the TGI [5] was > 100 µM, the TGI [1] was > 100 µM and the TGI [8] was > 100 µM. The TGI [2] was > 100 µM, the TGI [3] was > 100 µM and the TGI [6] was > 100 µM. The TGI [4] was > 100 µM and the TGI [7] was > 100 µM.

With `BrC(Br)=C1C(=C(Br)Br)C(Br)C1Br` (stereo not given) the TGI [5] was 2.59 µM, the TGI [1] was 2.15 µM and the TGI [8] was 0.898 µM. For the same molecule, the TGI [2] was 1.49 µM, the TGI [9] was 3.63 µM and the TGI [3] was 1.6 µM. It also gave a TGI [6] of 1.35 µM, a TGI [7] of 1.14 µM and a TGI [10] of 5.42 µM.

With `O=C(O)C[C@@H](Cl)[C@H](NC(=O)OCc1ccccc1)C(=O)O` the TGI [5] was > 100 µM, the TGI [1] was > 100 µM and the TGI [8] was > 100 µM. For the same molecule, the TGI [2] was > 100 µM, the TGI [3] was > 100 µM and the TGI [6] was > 100 µM. For the same molecule, the TGI [4] was > 100 µM and the TGI [7] was > 100 µM.

For `NCCc1ccc(S(=O)(=O)F)cc1`, the GI50 [5] was > 100 µM, the TGI [5] was > 100 µM and the GI50 [1] was > 100 µM. For the same molecule, the TGI [1] was > 100 µM, the GI50 [8] was 30.3 µM and the TGI [8] was > 100 µM. The GI50 [2] was 45.9 µM, the TGI [2] was > 100 µM and the GI50 [6] was 62.3 µM. For the same molecule, the TGI [6] was > 100 µM, the GI50 [4] was 32.2 µM and the TGI [4] was > 100 µM. For the same molecule, the GI50 [10] was 42.8 µM and the TGI [10] was > 100 µM.

With `COc1cc(/C=C(\NC(=O)c2ccccc2)c2nc3ccc4c(c3[nH]2)C(=O)c2ccccc2C4=O)cc(OC)c1OC` the TGI [5] was > 100 µM, the TGI [1] was > 100 µM and the TGI [8] was > 100 µM. For the same molecule, the TGI [3] was > 100 µM, the TGI [4] was 43 µM and the TGI [7] was > 100 µM.

Molecule `CCCCCCCCCCCCCCCC1=NCCN1` has a GI50 [5] of 1.86 µM, a TGI [5] of 3.66 µM and a GI50 [1] of 1.83 µM. For the same molecule, the TGI [1] was 3.45 µM, the GI50 [8] was 1.67 µM and the TGI [8] was 3.58 µM. For the same molecule, the GI50 [2] was 1.85 µM, the TGI [2] was 3.7 µM and the GI50 [9] was 2.23 µM. It also gave a TGI [9] of 4.68 µM, a GI50 [10] of 2.03 µM and a TGI [10] of 4.24 µM.

`COC(=O)C1=C(O)[C@H](C(=O)OC)C2(O)C(C(=O)OC)[C@H](c3ccc(OC(=O)C(C)c4ccccc4)cc3)C[C@@H]1[C@@H]2C(=O)OC` (stereo not given in full) showed a GI50 [5] of 13.7 µM, a TGI [5] of 36.3 µM and a GI50 [1] of 10.6 µM. For the same molecule, the TGI [1] was 31.4 µM, the GI50 [8] was 15.2 µM and the TGI [8] was > 50 µM. For the same molecule, the GI50 [2] was 19.2 µM, the TGI [2] was > 50 µM and the GI50 [9] was 19.5 µM. The TGI [9] was > 50 µM, the GI50 [6] was 19.4 µM and the TGI [6] was > 50 µM. The GI50 [7] was 18.8 µM, the TGI [7] was > 50 µM and the GI50 [10] was 36.2 µM. For the same molecule, the TGI [10] was > 50 µM.

`CC(C)N1CCN(c2ccncc2S(=O)(=O)N2CCCCC2)CC1` was tested, and the TGI [5] was > 100 µM, the TGI [1] was > 100 µM and the TGI [8] was > 100 µM. The TGI [2] was > 100 µM, the TGI [9] was > 100 µM and the TGI [6] was > 100 µM. The TGI [7] was > 100 µM and the TGI [10] was > 100 µM.

`O=C1C(Cl)=C(Nc2ccc(Nc3ccccc3)c(NC3=C(Cl)C(=O)c4ccccc4C3=O)c2)C(=O)c2ccccc21` showed a GI50 [8] of 5.36 µM, a TGI [8] of 29 µM and a GI50 [9] of 1.27 µM. The TGI [9] was 6.02 µM, the GI50 [3] was 3.71 µM and the TGI [3] was > 100 µM. For the same molecule, the GI50 [6] was 3.35 µM, the TGI [6] was 13 µM and the GI50 [7] was 3.33 µM. The TGI [7] was > 100 µM, the GI50 [10] was 3.63 µM and the TGI [10] was 24.8 µM.

`COc1ccc(/C(=N\NC(=O)NN)C(c2ccc(OC)cc2)C2(O)C(=O)Nc3c(Cl)cc(Cl)cc32)cc1` (stereo not given) was tested, and the TGI [5] was > 100 µM, the TGI [1] was > 100 µM and the TGI [2] was > 100 µM. For the same molecule, the TGI [3] was > 100 µM, the TGI [6] was > 100 µM and the TGI [4] was > 100 µM. For the same molecule, the TGI [7] was > 100 µM.

With `CO[C@@H]1C=C[C@@]23c4cc5c(cc4CN(C[C@@H]2O)[C@H]3C1)OCO5` the TGI [1] was > 100 µM, the TGI [8] was 49.1 µM and the TGI [2] was > 100 µM. For the same molecule, the TGI [3] was 47.7 µM, the TGI [6] was > 100 µM and the TGI [4] was 69.5 µM. The TGI [7] was > 100 µM.

With `C=C(CN1CCN(c2ccc(C(F)(F)F)cc2)CC1)c1ccc(C(=O)Nc2ccccc2N)cc1` the GI50 [5] was > 100 µM, the TGI [5] was > 100 µM and the GI50 [1] was 7.64 µM. The TGI [1] was > 100 µM, the GI50 [8] was 6.08 µM and the TGI [8] was 44 µM. For the same molecule, the GI50 [2] was 9.64 µM, the TGI [2] was > 100 µM and the GI50 [9] was 3.6 µM. The TGI [9] was > 71.3 µM, the GI50 [6] was 3.44 µM and the TGI [6] was > 100 µM. For the same molecule, the GI50 [4] was 0.153 µM, the TGI [4] was 1.06 µM and the GI50 [7] was 0.405 µM. The GI50 [10] was 1.29 µM and the TGI [10] was > 65.7 µM.
